Source: publication PMC5951806, “Rapid labelling and covalent inhibition of intracellular native proteins using ligand-directed N-acyl-N-alkyl sulfonamide” (Nature Communications, 2018)

Assays:
Assay in all cases: TMT LC-MSMS of 11-labelled proteins
Type in all cases: cell-based
[1] = target: Argininosuccinate synthase (ASS1) (Homo sapiens, UniProt P00966); settings: sheet Merged, SKBR3 cells
[2] = target: T1, Isoform 2 of Calcium-binding mitochondrial carrier protein Aralar2 (SLC25A13) (Homo sapiens, UniProt Q9UJS0)
T1 sequence (Q9UJS0 2-676 isoform Q9UJS0-2): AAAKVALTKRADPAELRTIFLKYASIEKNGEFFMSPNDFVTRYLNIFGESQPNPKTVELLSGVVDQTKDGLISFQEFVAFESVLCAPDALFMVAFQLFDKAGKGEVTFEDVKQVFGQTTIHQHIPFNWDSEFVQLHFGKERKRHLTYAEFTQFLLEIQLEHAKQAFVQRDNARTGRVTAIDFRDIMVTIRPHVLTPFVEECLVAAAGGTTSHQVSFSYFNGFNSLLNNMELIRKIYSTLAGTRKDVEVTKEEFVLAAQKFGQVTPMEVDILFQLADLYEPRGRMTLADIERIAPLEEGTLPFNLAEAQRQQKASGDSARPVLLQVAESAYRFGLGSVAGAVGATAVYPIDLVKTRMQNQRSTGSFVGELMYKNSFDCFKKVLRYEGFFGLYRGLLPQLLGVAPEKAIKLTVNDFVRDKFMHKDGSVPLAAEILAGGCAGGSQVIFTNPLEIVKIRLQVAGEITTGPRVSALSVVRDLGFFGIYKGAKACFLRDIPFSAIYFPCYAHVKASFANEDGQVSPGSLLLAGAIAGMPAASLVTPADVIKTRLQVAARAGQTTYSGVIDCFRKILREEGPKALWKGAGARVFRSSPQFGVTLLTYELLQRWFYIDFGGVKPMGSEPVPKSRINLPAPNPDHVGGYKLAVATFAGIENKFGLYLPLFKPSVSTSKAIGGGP

[3] = target: Isoform 3 of L-lactate dehydrogenase A chain (LDHA) (Homo sapiens, UniProt P00338)
[4] = sheet Merged, SKBR3 cells, 11 0.5 µM 3 h vs DMSO
[5] = sheet Merged, SKBR3 cells, 11 0.5 µM 3 h vs with PU-H71 10 µM

Sequence of Argininosuccinate synthase (ASS1) (P00966 whole entry, canonical isoform): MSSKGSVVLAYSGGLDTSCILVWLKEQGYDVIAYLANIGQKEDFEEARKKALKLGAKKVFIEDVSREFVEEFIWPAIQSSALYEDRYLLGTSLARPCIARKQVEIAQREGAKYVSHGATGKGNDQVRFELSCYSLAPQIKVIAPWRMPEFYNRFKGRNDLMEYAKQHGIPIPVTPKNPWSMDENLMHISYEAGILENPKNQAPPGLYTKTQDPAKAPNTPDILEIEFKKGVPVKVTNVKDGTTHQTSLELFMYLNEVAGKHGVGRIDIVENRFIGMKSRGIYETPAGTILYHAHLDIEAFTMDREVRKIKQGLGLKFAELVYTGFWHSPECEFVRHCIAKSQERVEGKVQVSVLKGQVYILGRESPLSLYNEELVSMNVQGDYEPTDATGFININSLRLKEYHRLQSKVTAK

CC(=O)Oc1ccc2c(c1)Oc1cc(OC(C)=O)ccc1C21OC(=O)c2cc(C(=O)NCCOCCOCCNC(=O)CCCC(=O)N(CC#N)S(=O)(=O)c3ccc(C(=O)NCCCn4c(Sc5cc6c(cc5I)OCO6)nc5c(N)ncnc54)cc3)ccc21 [compound 11]
Abundance Ratio: (11) / (DMSO) ([1]; 11 0.5 µM 3 h vs DMSO): 2.736 | Abundance Ratio: (11) / (11 with PU-H71) ([1]; 11 0.5 µM 3 h vs with PU-H71 10 µM): 0.837 | Abundance Ratio: (11) / (11 with PU-H71) ([2]; sheet Exp2, SLC25A13): 0.894 | Abundance Ratio: (11) / (DMSO) ([2]; sheet Exp2, SLC25A13): 2.324 | Abundances (Grouped): 11 ([2]; sheet Exp2, SLC25A13): 24.4 | Abundances (Grouped): 11 with PU-H71 ([2]; sheet Exp2, SLC25A13, with PU-H71): 27.3 | Abundance Ratio: (11) / (DMSO) [2, 4]: 2.324 | Abundance Ratio: (11) / (11 with PU-H71) [2, 5]: 0.894 | Abundance Ratio: (11) / (11 with PU-H71) ([3]; Exp3, LDHA): 0.709 | Abundance Ratio: (11) / (DMSO) ([3]; Exp3, LDHA): 4.426 | Abundances (Grouped): 11 ([3]; Exp3, LDHA): 517.9 | Abundances (Grouped): 11 with PU-H71 ([3]; Exp3, LDHA): 730.3 | Abundance Ratio: (11) / (DMSO) ([3]; sheet Exp1, SKBR3 cells, 11 0.5 µM 3 h vs DMSO): 4.186 | Abundance Ratio: (11) / (11 with PU-H71) ([3]; sheet Exp1, SKBR3 cells, 11 0.5 µM 3 h vs with PU-H71 10 µM): 0.705 | Abundance Ratio: (11) / (11 with PU-H71) ([3]; sheet Exp2, LDHA): 0.702 | Abundance Ratio: (11) / (DMSO) ([3]; sheet Exp2, LDHA): 3.79 | Abundances (Grouped): 11 ([3]; sheet Exp2, LDHA): 554.9 | Abundances (Grouped): 11 with PU-H71 ([3]; sheet Exp2, LDHA): 790.3 | Abundance Ratio: (11) / (DMSO) [3, 4]: 4.186 | Abundance Ratio: (11) / (11 with PU-H71) [3, 5]: 0.705
